According to US10799457B2, “Exosomal compositions and methods for the treatment of disease” (priority 2010, dated 2020):

How the values were obtained:
[1] = In vitro stability assay in PBS (pH 7.4) at 37° C.; assay type: physicochemical; conditions: 150 min
Description: The fold reduction of the concentration at each time was determined by comparison to the beginning value. The experiments were repeated three times for each time point (n=3).

C57BL/6j mice = experiment: LPS mouse septic shock model; assay type: in vivo; conditions: 16 hours after IP injection of LPS, 4 mg/kg IP
Description: Mouse mortality was monitored over a period of 4 days. The sera were collected 16 hr after LPS injection and used to determine IL-6 and TNF-α levels using ELISAs as before. At day 1 after LPS challenge, 3 mice from each treated group were sacrificed and the leukocytes in the lungs were isolated using a method described previously (21). The percentage of CD11b^+Gr-1^+ cells in the lung was determined by FACS analysis.
Briefly, to monitor mice mortality, a LD50 (median lethal dose) of LPS was determined first. LPS (5 mg/ml, Sigma, St. Louis, Mo.) was then prepared with sterile H2O and varied amounts of LPS were IP injected into the same batch of commercially supplied C57BL/6j mice. Each group contained 6 mice. […] Exosomes and PBS injections served as controls.

Gr1^+ cells = experiment: Gr1+ cell apoptosis, Annexin V FACS analysis; assay type: cell-based, Mouse; conditions: 5 μM and 10 μM, 8 hours, Annexin V-FITC FACS
Description: For cell surface marker staining, isolated cells were blocked at 4° C. for 5 min with 10 μg/ml mouse Fc block (BD Biosciences, San Jose, Calif.) and then reacted with various fluorochrome-labeled antibodies including appropriate isotype controls for 30 min at 4° C. After washing twice, cells were fixed and analyzed using a FACSCalibur flow cytometer (Becton Dickinson Biosciences, San Jose, Calif.). Data were analyzed using FlowJo software (Tree Star, Inc., Ashland, Oreg.). The following antibodies were used for immunostaining: FITC-Annexing V (Invitrogen, Carlsbad, Calif.), APC anti-mouse CD11b and PE anti-mouse Gr-1 (eBiosciences, San Diego, Calif.).
Mouse bone marrow cells were isolated as described previously (22). The isolated bone marrow cells were re-suspended to a concentration of 1×10^8 cells/ml using RPMI 1640 medium supplemented with 10% FBS. A Gr1-PE conjugated antibody (3 μg/ml), following a mouse FcR blocking specific antibody (5 μl/ml), was added, mixed thoroughly and incubated at 4° C. for 15 min. After centrifugation at 1500 rpm for 5 min, cells were re-suspended in fresh medium to a concentration of 1×10^8 cells/ml. EasySep® PE selection cocktail (25 μl/ml, StemCell Technologies, Vancouver, British Columbia) was added to the cells and incubated at 4° C. for 15 min. […]

C57BL/6 mice = experiment: Experimental autoimmune encephalitis (EAE), MOG 35-55 induced; assay type: in vivo; conditions: intranasal daily from day 4, 1.5 nmoles; scale 0-5
Description: EAE was induced in six-week-old female C57BL/6 mice using a procedure described previously (67). Briefly, mice were primed subcutaneously in the flanks with 150 μg of Myelin Oligodendrocyte Glycoprotein (MOG) 35-55 peptide (Biosynthesis, Lewisville, Tex.) per animal. The peptide was emulsified in complete Freund's adjuvant (CFA) containing 1 mg/ml of Mycobacterium tuberculosis H37RA (Difco, Detroit, Mich.). Two days later the mice were injected IP with 500 ng of Pertussis toxin (Alexis Corp., San Diego, Calif.) in 100 μl of PBS. Mice (n=10) were treated intranasally with daily doses of 1.5 nmoles of Exo-cur, or with Cur- or Exo-controls in PBS or PBS-control for 26 consecutive days. […] The mice were scored as follows: 0, no detectable signs of EAE; 1, complete limp tail; 2, limp tail and hindlimb weakness; 3, severe hindlimb weakness; 4, complete bilateral hindlimb paralysis; 5, total paralysis of both forelimbs and hindlimbs or death.
Relative quantification of select mRNA was performed using a CFX96 Realtime System and SsoFast™ Evagreen® supermixture (Bio-Rad Laboratories, Hercules, Calif.) according to the manufacturer's instructions. […] Fold changes in mRNA expression between treatments and controls were determined the ΔCT method (91). Fluorescence threshold cycle (Ct) values were calculated using SDS 700 System Software (Bio-Rad Laboratories, Hercules, Calif.). […]

Q: For `COc1cc(/C=C/C(=O)CC(=O)/C=C/c2ccc(O)c(OC)c2)ccc1O` [curcumin], which “curcumin remaining after incubation compared to the 0 min sample” value [1] is on record?
A: Its value is 25%.

Q: And the “sera level of IL-6” value (C57BL/6j mice)?
A: Its value is “similar”.

Q: And the “sera level of TNF-α” value (C57BL/6j mice)?
A: The value was “similar”.

Q: And the “Gr1+ cell apoptosis” value (Gr1^+ cells)?
A: The value was “induces Gr1^+ cell apoptosis”.

Q: What about the “EAE disease severity score” value (C57BL/6 mice) of the same compound?
A: The value was 3.60±0.12.
